These results are taken from US4935579A, “Separation of m-diisopropylbenzene from p-diisopropylbenzene by azeotropic distillation with alcohols” (priority 1988, dated 1990).

Data set [1] in a line: Vapor-liquid equilibrium still: relative volatility of m-DIPB to p-DIPB with alcohol agent and azeotrope boiling point. It is filed as physicochemical. Particulars: for Relative Volatility (m-DIPB to p-DIPB): vapor-liquid equilibrium still; for Relative Volatility (m-DIPB to p-DIPB) / Azeotrope B.P.: starting mixture 50 % alcohol, 25 % m-DIPB, 25 % p-DIPB; for Azeotrope B.P.: 640 mm. Hg; for vapor composition, m-DIPB / vapor composition, p-DIPB: gas chromatography; for relative volatility of m-DIPB to p-DIPB: Examples 1 and 2, reflux thirteen or eleven hours. The text has this:
The data in Tables 2 and 3 were obtained in a vapor-liquid equilibrium still. In each case, the starting material was a mixture containing 50 % alcohol, 25 % m-DIPB and 25 % p-DIPB. The boiling points of the azeotropes at 640 mm. Hg are shown. The relative volatilities are listed for each of the alcohols investigated.
Forty grams of m-DIPB - p-DIPB mixture and 40 grams of diethylene glycol butyl ether were charged to an Othmer type vapor-liquid equilibrium still and refluxed for thirteen hours. Analysis by gas chromatography gave a vapor composition of 68.9% m-DIPB, 31.1% p-DIPB; a liquid decomposition of […], 36.8% p-DIPB. This indicates a relative volatility of m-DIPB to p-DIPB of 1.29.
Forty grams of m-DIPB - p-DIPB mixture and 40 grams of diethylene gylcol methyl ether were charged to the vapor-liquid equilibrium still and refluxed for eleven hours. Analysis indicated a vapor composition of 66.7% m-DIPB, 33.3% p-DIPB; a liquid composition of […] which is a relative volatility of 1.28.

A short description of data set [2]: Packed rectification column (Berl saddles, 2.3 theoretical plates), Fenske equation. It is filed as physicochemical. The settings on record: 80 g m-DIPB, 20 g p-DIPB, 40 g agent, two hours total reflux. The text has this:
A solution comprising 80 grams of m-DIPB, 20 grams of p-DIPB and 40 grams of o-isopropyl phenol was placed in the stillpot and heated. After two hours of refluxing a total reflux, analysis was made by gas chromatography. The overhead composition was 78% m-DIPB, 22% p-DIPB and the stillpot analysis was 62.7% m-DIPB, 37.3% p-DIPB. Using these compositions in the Fenske equation with the number of theoretical plates in the column being 2.3 gave an average relative volatility of 1.34 for each theoretical plate.

The conditions of data set [3]: no agent; prior art description; cited from earlier work.
For data set [4] the following is noted: m-DIPB and p-DIPB, no agent; cited from earlier work.
Data set [5] in a line: Boiling point and rectification of the isomers without agent. It is filed as physicochemical. The settings on record: 99% purity, 75% efficiency, no agent. The method, then: In the manufacture of cumene, also called isopropylbenzene, by the alkylation of benzene with propylene, the most prevalent by-products are the diisopropylbenzenes with the meta and para isomers comprising most of the by-product. m-Diisopropylbenzene (m-DIPB) boils at 203.2° C. […] boils at 210.3° C. and these two have a relative volatility of 1.14. The difficulty of separating these two by rectification can be shown by the data in Table 1.
that rectification of m-DIPB from p-DIPB in 99% purity requires 95 actual plates. Using azeotropic distillation with an agent yielding a relative volatility of 1.29 would require only 48 actual plates.

The mark [6] stands for this setting: 40 g m-DIPB - p-DIPB mixture and 40 g agent.

For `CC(=O)CC(C)(C)O` [Diacetone alcohol], the “Relative Volatility (m-DIPB to p-DIPB)” value in data set [1] was determined as 1.13.

On to `Cc1ccccc1O` [o-Cresol], for which, in data set [1], the “Azeotrope B.P.” value came to 184 °C and the “Relative Volatility (m-DIPB to p-DIPB)” value is 1.26.

Turning to `COCCOCCO` [Diethylene glycol methyl ether], in data set [1] (setting [6]), the “liquid composition, m-DIPB” value worked out at 60.9%; the “vapor composition, m-DIPB” value was 66.7%; the “vapor composition, p-DIPB” value is given as 33.3%; the “relative volatility of m-DIPB to p-DIPB” value stood at 1.28. For the same compound, in data set [1], the “Azeotrope B.P.” value worked out at 182 °C and the “Relative Volatility (m-DIPB to p-DIPB)” value is reported as 1.28.

Take `CC(C)CCCCCO` [Isooctanol]: the “Relative Volatility (m-DIPB to p-DIPB)” value in data set [1] was 1.15.

As for `CCCCC(CC)CO` (stereo not drawn) [2-Ethyl hexanol], in data set [1], the “Azeotrope B.P.” value amounted to 183 °C and the “Relative Volatility (m-DIPB to p-DIPB)” value amounted to 1.27. The “Relative Volatility of alcohol:DIPB mixture” value in data set [1] (one part agent with one part m-DIPB - p-DIPB mixture) is on record as 1.27.

Regarding `CCCCCCCCO` [1-Octanol], in data set [1], the “Relative Volatility (m-DIPB to p-DIPB)” value was found to be 1.14.

Consider `CCCCCCOCCO` [Ethylene glycol hexyl ether], for which, in data set [1], the “Azeotrope B.P.” value turned out to be 195 °C and the “Relative Volatility (m-DIPB to p-DIPB)” value is listed as 1.26.

As to `CCC(C)c1ccccc1O` (stereo not drawn) [o-sec. Butyl phenol], in data set [1], the “Azeotrope B.P.” value is 205 °C and the “Relative Volatility (m-DIPB to p-DIPB)” value was found to be 1.23.

`CCCCOCCOCC(C)O` (stereo not drawn) [Butoxyethoxypropanol]: in data set [1], the “Azeotrope B.P.” value turned out to be 199 °C and the “Relative Volatility (m-DIPB to p-DIPB)” value amounted to 1.17.

Regarding `Cc1ccc(O)cc1` [p-Cresol], in data set [1], the “Azeotrope B.P.” value was 188 °C and the “Relative Volatility (m-DIPB to p-DIPB)” value is 1.25.

Take `CC(C)CCCCCCO` [Isononyl alcohol]: in data set [1], the “Azeotrope B.P.” value turned out to be 194 °C and the “Relative Volatility (m-DIPB to p-DIPB)” value was determined as 1.22.

As to `CCCCOCCOCCO` [Diethylene glycol butyl ether], in data set [1] (setting [6]), the “liquid composition, m-DIPB” value is 63.2%; the “liquid composition, p-DIPB (second figure)” value came to 36.8%; the “vapor composition, m-DIPB” value is given as 68.9%; the “vapor composition, p-DIPB” value is given as 31.1%. Also, the “relative volatility of m-DIPB to p-DIPB” value in data set [1] (setting [6]) worked out at 1.29. In addition, in data set [1], the “Azeotrope B.P.” value amounted to 200 °C and the “Relative Volatility (m-DIPB to p-DIPB)” value amounted to 1.29.

As to `CCOCCOCCO` [Diethylene glycol ethyl ether], in data set [1], the “Azeotrope B.P.” value was 185 °C and the “Relative Volatility (m-DIPB to p-DIPB)” value is listed as 1.25.

For the compound `OCCOc1ccccc1` [Ethylene glycol phenyl ether], the “Relative Volatility (m-DIPB to p-DIPB)” value in data set [1] is 1.14.

In the case of `CC(C)c1ccccc1O` [o-Isopropyl phenol], in data set [2], the “overhead composition, m-DIPB” value worked out at 78%; the “overhead composition, p-DIPB” value stood at 22%; the “stillpot composition, m-DIPB” value turned out to be 62.7%; the “stillpot composition, p-DIPB” value was 37.3%. For the same compound, the “average relative volatility for each theoretical plate” value in data set [2] (Fenske equation, 2.3 plates) is recorded as 1.34. In data set [1], the “Azeotrope B.P.” value worked out at 200 °C and the “Relative Volatility (m-DIPB to p-DIPB)” value was found to be 1.34.

On to `CC(C)(C)c1ccccc1O` [o-tert. Butyl phenol], for which, in data set [1], the “Azeotrope B.P.” value worked out at 205 °C and the “Relative Volatility (m-DIPB to p-DIPB)” value was 1.20.

Take `CC(C)c1cccc(C(C)C)c1` [m-DIPB, m-Diisopropylbenzene]: in data set [3], the boiling point (commonly the temperature of boiling at a given pressure) was 203.2 °C; the “relative volatility of m-DIPB and p-DIPB without agent” value is 1.14. For the same compound, in data set [4], the “relative volatility used in column calibration” value is 1.14. The “actual plates required for rectification of m-DIPB from p-DIPB” value in data set [5] is reported as 95 actual plates.

Take `CCCCCCCCCO` [n-Nonyl alcohol]: in data set [1], the “Azeotrope B.P.” value turned out to be 196 °C and the “Relative Volatility (m-DIPB to p-DIPB)” value was 1.23.

Take `CC(C)c1ccc(C(C)C)cc1` [p-DIPB, p-diisopropylbenzene]: the boiling point in data set [3] is 210.3 °C.

For `Oc1ccccc1` [Phenol], in data set [1], the “Azeotrope B.P.” value was determined as 174 °C and the “Relative Volatility (m-DIPB to p-DIPB)” value is recorded as 1.24.

As for `CCCCCCC(C)O` (stereo not drawn) [2-Octanol], the “Relative Volatility (m-DIPB to p-DIPB)” value in data set [1] was found to be 1.10.

Regarding `CCCCOCCO` [Ethylene glycol butyl ether], the “Relative Volatility (m-DIPB to p-DIPB)” value in data set [1] was 0.6.

With `Cc1cccc(O)c1` [m-Cresol], in data set [1], the “Azeotrope B.P.” value was 189 °C and the “Relative Volatility (m-DIPB to p-DIPB)” value amounted to 1.17.

Turning to `CC(C)CC(O)CC(C)C` [Diisobutyl carbinol], in data set [1], the “Azeotrope B.P.” value is 180 °C and the “Relative Volatility (m-DIPB to p-DIPB)” value was determined as 1.20.

`CCCCCCO` [n-Hexanol]: the “Relative Volatility (m-DIPB to p-DIPB)” value in data set [1] stood at 1.10.

`OCc1ccccc1` [Benzyl alcohol]: the “Relative Volatility (m-DIPB to p-DIPB)” value in data set [1] is listed as 1.11.

On to `OCC1CCCO1` (stereo not drawn) [Tetrahydrofurfuryl alcohol], for which, in data set [1], the “Azeotrope B.P.” value was 171 °C and the “Relative Volatility (m-DIPB to p-DIPB)” value is recorded as 1.21.

In the case of Dipropylene glycol methyl ether, in data set [1], the “Azeotrope B.P.” value turned out to be 186 °C.

Regarding `OCCc1ccccc1` [Phenethyl alcohol], in data set [1], the “Relative Volatility (m-DIPB to p-DIPB)” value is 1.06.

On to `CC(O)CO` (stereo not drawn) [Propylene glycol], for which, in data set [1], the “Azeotrope B.P.” value came out at 168 °C and the “Relative Volatility (m-DIPB to p-DIPB)” value was 1.28.
